Paper PMC5909177 (Bioconjugate Chemistry, 2018)

Assays:
Gal-3 [1] = conditions: for Gal-3; cited from earlier work
Gal-1 = conditions: for Gal-1; cited from earlier work
Gal-3 [2] = biological target: Gal-3 (Homo sapiens, UniProt P17931); assay: competitive inhibition of Gal-3 binding to immobilized asialofetuin; conditions: negative control
Gal-3 (Homo sapiens, UniProt P17931), sequence (P17931 whole entry): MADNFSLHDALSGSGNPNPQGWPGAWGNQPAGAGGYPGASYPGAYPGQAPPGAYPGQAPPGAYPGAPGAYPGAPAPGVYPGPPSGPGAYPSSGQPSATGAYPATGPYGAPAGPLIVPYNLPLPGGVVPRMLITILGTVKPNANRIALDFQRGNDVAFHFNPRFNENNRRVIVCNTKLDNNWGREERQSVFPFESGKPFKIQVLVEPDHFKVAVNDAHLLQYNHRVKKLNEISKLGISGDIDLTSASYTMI

## OC[C@H]1O[C@@H](S[C@@H]2O[C@H](CO)[C@H](O)[C@H](O)[C@H]2O)[C@H](O)[C@@H](O)[C@H]1O [TDG, thiodigalactoside]
Gal-3 [1]
  Kd: 49 µM
Gal-1
  Kd: 24 µM

## CO[C@@H]1O[C@H](CO)[C@@H](O[C@@H]2O[C@H](CO)[C@H](O)[C@H](O)[C@H]2O)[C@H](O)[C@H]1O [methyl β-lactoside]
Gal-3 [1]
  Kd: 220 µM
Gal-1
  Kd: 190 µM

## CO[C@@H]1O[C@H](CO)[C@@H](O[C@@H]2O[C@H](CO)[C@H](O)[C@H](O)[C@H]2O)[C@H](O)[C@H]1NC(C)=O [methyl β-LacNAc]
Gal-3 [1]
  Kd: 67 µM

## bovine serum albumin [Nonmodified BSA]
Gal-3 [2]
  interference with Gal-3 binding to ASF: not interfering with Gal-3 binding to ASF
